# Results as given in the supplement of paper PMC10307832.
# How the values were obtained:
# Experiment in all cases: relative viability (nuclei count vs DMSO), 5 days (fraction); higher = more cells survive
# Mirin + Pictilisib = compound: N=C1NC(=O)/C(=C/c2ccc(O)cc2)S1 [Mirin] + CS(=O)(=O)N1CCN(Cc2cc3nc(-c4cccc5[nH]ncc45)nc(N4CCOCC4)c3s2)CC1 [Pictilisib] (partner 1 µM)
# Outline: (§1)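 Values are medians from duplicate plates. Each reflects relative viability, defined as the nuclei count of treated wells over that of vehicle wells. Lung cancer cell lines in 1536-well plates were pin-tool dosed one day after seeding with one drug alone or with a fixed anchor-drug dose plus five library-drug doses (not always all listed) in √10 steps, then fixed, stained and imaged at 4× after 5 days.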
# Mirin + Olaparib = compound: N=C1NC(=O)/C(=C/c2ccc(O)cc2)S1 [Mirin] + O=C(c1cc(Cc2n[nH]c(=O)c3ccccc23)ccc1F)N1CCN(C(=O)C2CC2)CC1 [Olaparib] (partner 8 µM)
# Outline: as §1
# Mirin + Bortezomib = compound: N=C1NC(=O)/C(=C/c2ccc(O)cc2)S1 [Mirin] + CC(C)C[C@H](NC(=O)[C@H](Cc1ccccc1)NC(=O)c1cnccn1)B(O)O [Bortezomib] (partner 0.002 µM)
# Outline: as §1
# [1] = compound: CCC1=CN=CN=C1N2CCN(CC2)CC3=NC4=C(N3)C=C(C=C4)C(F)(F)F + Cc1cc(Nc2cc(N3CCN(C)CC3)nc(Sc3ccc(NC(=O)C4CC4)cc3)n2)n[nH]1 [Tozasertib] (partner 0.1 µM)
# Outline: as §1
Cell Line,relative viability (Mirin + Pictilisib; first compound 0.25 µM),relative viability (Mirin + Pictilisib; first compound 0.7906 µM),relative viability (Mirin + Pictilisib; first compound 2.5 µM),relative viability (Mirin + Pictilisib; first compound 7.906 µM),relative viability (Mirin + Pictilisib; first compound 25 µM),relative viability (Mirin + Olaparib; first compound 0.25 µM),relative viability (Mirin + Olaparib; first compound 0.7906 µM),relative viability (Mirin + Olaparib; first compound 2.5 µM),relative viability (Mirin + Olaparib; first compound 7.906 µM),relative viability (Mirin + Olaparib; first compound 25 µM),relative viability (Mirin + Bortezomib; first compound 0.25 µM),relative viability (Mirin + Bortezomib; first compound 0.7906 µM),relative viability (Mirin + Bortezomib; first compound 2.5 µM),relative viability (Mirin + Bortezomib; first compound 7.906 µM),relative viability (Mirin + Bortezomib; first compound 25 µM),relative viability ([1]; first compound 0.04 µM),relative viability ([1]; first compound 0.1265 µM),relative viability ([1]; first compound 0.4 µM),relative viability ([1]; first compound 1.265 µM),relative viability ([1]; first compound 4 µM)
NCI-H838,0.465,0.398,0.562,0.54,0.421,0.788,0.811,0.829,0.749,0.529,0.865,0.521,0.884,0.78,0.738,0.278,0.253,0.306,0.24,0.268
HARA,0.367,0.353,0.437,0.335,0.169,1.08,–,0.735,0.874,0.495,1.09,1.11,1.17,1.1,1.17,0.106,0.108,0.0892,–,0.0831
NCI-H23,0.483,–,0.385,0.367,0.373,0.317,–,0.342,0.248,0.377,1.3,–,1.15,0.842,0.817,0.341,0.361,0.346,0.305,0.361
LCLC-97TM1,0.184,0.128,0.193,0.136,0.149,0.386,0.413,0.486,0.244,0.166,0.589,–,0.582,0.278,0.868,0.209,0.196,0.234,0.207,0.205
LC-2-ad,0.554,0.298,0.497,0.216,0.356,0.743,0.757,0.706,0.784,0.733,0.996,1.07,1.03,0.907,1.03,0.442,0.497,0.424,0.406,0.413
SW 1573,0.473,–,0.466,0.355,0.289,0.481,0.408,0.46,0.37,0.271,1.01,1.06,1.14,0.95,0.855,0.205,0.214,0.181,0.153,0.203
EKVX,0.39,0.422,0.396,0.394,0.378,0.857,0.916,0.839,0.758,0.993,1.05,0.979,1,1.03,1.04,0.477,0.367,0.346,–,0.445
NCI-H2087,0.833,0.669,0.818,0.708,0.788,0.602,0.559,0.611,0.671,0.498,0.885,0.826,0.87,0.924,1.16,0.26,0.243,0.221,0.182,0.146
HCC-827,1.16,1.08,1.04,1.03,1.21,0.627,0.704,0.647,0.626,0.623,1.07,1.08,1.01,1.07,1.15,0.441,0.409,0.397,–,0.435
NCI-H661,–,0.329,0.499,–,0.332,0.713,0.759,0.712,0.707,0.655,0.696,0.787,0.836,0.518,0.527,0.371,0.348,0.362,0.322,0.366
CAL-12T,0.535,–,0.561,–,0.368,0.733,0.821,0.668,0.658,0.531,0.921,–,0.967,–,1.43,0.367,0.294,0.328,0.429,0.289
NCI-H2342,–,–,–,–,–,0.441,0.442,0.427,–,0.368,–,–,–,–,–,0.467,0.428,0.571,0.333,0.398
SW 900,–,–,–,–,–,0.842,0.959,0.848,0.913,0.767,–,–,–,–,–,0.538,0.585,0.497,0.548,0.523
IA-LM,0.399,0.438,0.326,0.349,0.494,0.786,0.947,0.765,–,0.902,0.687,0.961,0.757,0.632,0.845,–,–,–,–,–
EPLC-272H,0.35,–,0.284,0.311,0.258,0.867,0.682,0.812,0.661,0.228,0.962,–,1.04,0.714,0.826,0.257,0.225,0.262,0.327,0.332
A-427,0.749,–,0.821,0.603,0.783,0.769,0.682,0.631,0.766,0.766,0.97,–,1.01,1.03,1.02,0.209,0.218,0.21,0.174,0.177
NCI-H650,0.835,–,0.945,–,0.744,0.365,0.433,0.352,0.307,0.366,0.915,–,0.84,–,0.937,0.78,0.76,0.765,0.616,0.753
NCI-H1975,0.307,0.251,0.302,0.355,0.282,0.892,0.83,0.819,0.855,0.715,0.375,0.366,0.468,0.498,0.321,0.732,0.785,0.679,0.61,0.689
NCI-H358,0.357,0.288,0.415,0.315,0.323,0.6,0.86,0.584,0.487,0.601,–,–,–,–,–,0.0937,0.0935,0.101,0.112,0.109
RERF-LC-KJ,0.716,0.518,0.563,0.594,0.439,1.03,1.12,0.941,0.972,0.875,1.22,1.25,1.07,1.18,1.2,0.517,0.503,0.464,0.459,0.398
NCI-H1792,0.269,0.303,0.294,0.262,0.259,0.533,0.392,0.484,0.383,0.495,0.982,0.997,0.902,0.883,0.984,–,–,–,–,–

Cell Line,relative viability (Mirin + Pictilisib; first compound 0.25 µM),relative viability (Mirin + Pictilisib; first compound 0.7906 µM),relative viability (Mirin + Pictilisib; first compound 2.5 µM),relative viability (Mirin + Pictilisib; first compound 7.906 µM),relative viability (Mirin + Pictilisib; first compound 25 µM),relative viability (Mirin + Olaparib; first compound 0.25 µM),relative viability (Mirin + Olaparib; first compound 0.7906 µM),relative viability (Mirin + Olaparib; first compound 2.5 µM),relative viability (Mirin + Olaparib; first compound 7.906 µM),relative viability (Mirin + Olaparib; first compound 25 µM),relative viability (Mirin + Bortezomib; first compound 0.25 µM),relative viability (Mirin + Bortezomib; first compound 0.7906 µM),relative viability (Mirin + Bortezomib; first compound 2.5 µM),relative viability (Mirin + Bortezomib; first compound 7.906 µM),relative viability (Mirin + Bortezomib; first compound 25 µM),relative viability ([1]; first compound 0.04 µM),relative viability ([1]; first compound 0.1265 µM),relative viability ([1]; first compound 0.4 µM),relative viability ([1]; first compound 1.265 µM),relative viability ([1]; first compound 4 µM)
NCI-H647,0.413,–,0.417,–,0.295,0.567,0.617,0.617,0.479,0.164,1.24,0.909,1.04,0.816,0.444,0.253,0.296,0.375,0.206,0.393
SK-LU-1,0.742,0.555,0.588,0.464,0.328,0.5,0.532,0.449,0.357,0.425,1.22,1.22,1.19,–,1.15,0.326,0.334,0.362,0.335,0.274
NCI-H441,0.531,0.521,0.528,0.37,0.362,0.468,0.582,0.674,0.412,0.401,0.387,0.645,0.449,0.314,0.409,0.501,0.752,0.506,0.583,0.622
COR-L 105,0.407,0.263,0.397,0.373,0.326,0.738,0.843,0.696,0.683,0.683,0.866,0.759,0.903,0.992,0.769,0.374,0.34,0.327,0.395,0.379
NCI-H1993,0.748,0.698,0.893,0.818,0.782,1.07,1.07,1.12,0.932,0.962,1.04,1.12,1.06,1.02,0.972,0.627,0.509,0.597,0.566,0.493
NCI-H1944,0.346,–,0.328,0.335,0.359,0.377,0.421,0.391,0.328,0.296,–,–,–,–,–,0.269,0.249,0.212,0.218,0.223
EBC-1,0.456,0.343,0.378,0.238,0.204,0.707,0.783,0.693,0.561,0.471,0.596,0.629,0.55,0.535,0.316,–,–,–,–,–
SK-MES-1,0.319,0.376,0.379,0.502,0.46,0.721,0.877,0.682,0.583,0.455,–,–,–,–,–,0.893,0.872,0.797,0.918,0.865
NCI-H1563,0.619,0.618,0.651,0.662,0.538,–,–,–,–,–,1.07,1.11,0.943,0.8,0.812,–,–,–,–,–
NCI-H1648,–,–,–,–,–,0.572,–,0.955,0.639,0.764,–,–,–,–,–,0.538,0.429,–,0.362,0.345
NCI-H1299,0.811,0.823,0.787,0.688,0.602,1.03,1.01,0.958,0.867,1.03,1.02,1.12,1.01,1.05,1.17,–,–,–,–,–
A549,0.541,0.512,0.55,0.403,0.321,0.342,0.229,0.333,0.243,0.367,–,–,–,–,–,–,–,–,–,–
NCI-H1793,0.387,0.327,0.236,0.311,0.482,0.649,–,0.958,0.873,0.703,–,–,–,–,–,0.352,0.325,0.303,–,0.256
NCI-H1623,–,–,–,–,–,–,–,–,–,–,–,–,–,–,–,0.368,0.422,0.38,0.423,0.425
NCI-H1703,0.25,0.252,0.27,–,0.226,0.414,0.384,0.412,–,0.635,0.449,0.483,0.347,–,0.227,–,–,–,–,–
NCI-H2170,0.327,0.217,0.281,0.247,0.253,0.582,0.548,0.576,0.597,0.601,–,–,–,–,–,0.719,0.74,0.648,0.662,0.643
NCI-H1395,0.578,–,0.617,0.549,0.512,0.427,–,0.478,0.426,0.425,–,–,–,–,–,0.733,0.807,0.715,0.698,0.756
NCI-H522,–,–,–,–,–,0.583,0.665,0.624,0.719,0.508,–,–,–,–,–,0.59,0.591,0.467,0.518,0.499
Calu-6,0.997,0.934,0.862,0.761,0.597,0.554,0.673,0.618,0.397,0.482,0.925,1.08,1.04,0.895,0.841,–,–,–,–,–
LK-2,0.387,–,0.537,0.271,0.222,0.629,0.454,0.695,0.489,0.546,–,–,–,–,–,0.157,0.193,0.171,0.193,0.166
